Reference: patent publication US20230123135A1 (priority 2020, published 2023)
“Also recorded” adds a separate entry of the source. Read-outs that look alike come from different tables or passages of the source.

How the values were obtained:
TNF-α [1] = assay: animal or person; type: in vivo, Mus musculus (BALB/c); design: TNF-α production in BALF: unit not given here; conditions: for inhibition of TNF-α production at 3 mg/kg: Mus musculus, read-out: inhibitory rate of TNF-α production (negative control as 100%)
IL-6 [2] = assay: animal or person; type: in vivo, Mus musculus (BALB/c); conditions: for inhibition of IL-6 production (%) at 3 mg/kg: Mus musculus, read-out: inhibitory rate of IL-6 production (negative control as 100%)
IL-1β [3] = assay: animal or person; type: in vivo, Mus musculus (BALB/c); conditions: for Inhibition rate of IL-1β production (%) at 3 mg/kg: Mus musculus, read-out: inhibitory rate of IL-1β production (negative control as 100%); for IL-1 beta Mean AUC (baseline-adjusted): mouse, in vivo
[4] = test system: primary rat peritoneal macrophages
SARS-CoV-2 = assay: microbe, parasite or virus in culture; type: cell-based; conditions: for IC50: read-out: IC50, inhibition of SARS-CoV-2 infection
in vitro = conditions: African green monkey
[5] = test system: primary rat peritoneal macrophages; remark: listed apart in the source
TNF-α [6] = type: cell-based, rat; conditions: 24 h, LPS 100 ng/mL; read-out: IC50, secretion of TNF-α
IL-1β [7] = type: cell-based, rat
IL-6 [8] = type: cell-based, rat
NO production = type: cell-based, mouse; conditions: read-out: IC50 for inhibition of NO production
PGE2 production = type: cell-based, mouse
iNOS = type: cell-based, mouse
COX-2 = type: cell-based, mouse
TNF-α [9] = type: cell-based, mouse
IL-1β [10] = type: cell-based, mouse
iNOS mRNA = type: cell-based, mouse
COX-2 mRNA = type: cell-based, mouse
TNF-α mRNA = type: cell-based, mouse
IL-1β mRNA = type: cell-based, mouse
IFN-β mRNA = type: cell-based, mouse
[11] = test system: NF-κB transcriptional activity; type: cell-based, mouse
NF-κB = assay: Western blot, NF-κB (p50, p65) protein in RAW264.7 macrophages; type: cell-based, mouse; conditions: 2.5-10 μM 30 min pretreatment, LPS 1 μg/mL 15 min
IκB = assay: Western blot, IκB degradation in RAW264.7 macrophages; type: cell-based, mouse; conditions: 2.5-10 μM 30 min pretreatment, LPS 1 μg/mL 15 min
SARS-CoV-2 infection = test system: SARS-CoV-2 infection; design: species or system person; conditions: in vivo
[12] = in vivo
human telomerase = conditions: cited from earlier work
[13] = Severe acute respiratory syndrome coronavirus 2, Vero, 24 h
[14] = 3 μM, in the absence of significant cell death

Q: For `C[C@@H]1C[C@H]2[C@@H]3CCC4=CC(=O)C=C[C@]4(C)[C@@]3(F)[C@@H](O)C[C@]2(C)[C@@]1(O)C(=O)CO` [Dexamethasone], which inhibition of TNF-α production at 3 mg/kg (TNF-α [1]; 1 h) is on record?
A: 25%

Q: And the inhibition of TNF-α production at 3 mg/kg (TNF-α [1]; 2 h)?
A: 28%

Q: And the inhibition of TNF-α production at 3 mg/kg (TNF-α [1]; 4 h)?
A: 33%

Q: What about the inhibition of TNF-α production at 3 mg/kg (TNF-α [1]; 6 h) of the same compound?
A: 28%

Q: And the inhibition of TNF-α production at 3 mg/kg (TNF-α [1]; 12 h)?
A: 9%

Q: What about the “TNF-alpha Mean AUC (baseline-adjusted)” value (TNF-α [1]; mouse, in vivo) of the same compound?
A: 2815.4 pg·h/mL

Q: And the inhibition of IL-6 production (%) at 3 mg/kg (IL-6 [2]; 1 h)?
A: 59%

Q: And the inhibition of IL-6 production (%) at 3 mg/kg (IL-6 [2]; 2 h)?
A: 43%

Q: And the inhibition of IL-6 production (%) at 3 mg/kg (IL-6 [2]; 4 h)?
A: 59%

Q: And the inhibition of IL-6 production (%) at 3 mg/kg (IL-6 [2]; 6 h)?
A: 20%

Q: And the inhibition of IL-6 production (%) at 3 mg/kg (IL-6 [2]; 12 h)?
A: 16%

Q: And the inhibition of IL-6 production (%) at 3 mg/kg (IL-6 [2]; 24 h)?
A: 51%

Q: What about the “IL-6 Mean AUC (baseline-adjusted)” value (IL-6 [2]; mouse, in vivo) of the same compound?
A: 54684.9 pg·h/mL

Q: And the Inhibition rate of IL-1β production (%) at 3 mg/kg (IL-1β [3]; 4 h)?
A: 69%

Q: And the Inhibition rate of IL-1β production (%) at 3 mg/kg (IL-1β [3]; 6 h)?
A: 67%

Q: What about the Inhibition rate of IL-1β production (%) at 3 mg/kg (IL-1β [3]; 12 h) of the same compound?
A: 77%

Q: And the “IL-1 beta Mean AUC (baseline-adjusted)” value (IL-1β [3])?
A: 2637.5 pg·h/mL

Q: For `C[C@@H]1CC[C@@]2(OC1)O[C@H]1[C@@H](O)[C@H]3[C@@H]4CC[C@H]5C[C@@H](O[C@@H]6O[C@H](CO)[C@H](O[C@@H]7O[C@H](CO)[C@@H](O)[C@H](O[C@@H]8OC[C@@H](O)[C@H](O)[C@H]8O)[C@H]7O[C@@H]7O[C@H](CO)[C@H](O)[C@H](O[C@@H]8O[C@H](CO)[C@@H](O)[C@H](O)[C@H]8O)[C@H]7O)[C@H](O)[C@H]6O)[C@H](O)C[C@]5(C)[C@H]4CC[C@]3(C)[C@H]1[C@@H]2C` [Digitonin, reference compound], which “cytotoxicity (CytoTox-GLO) compared with vehicle” value [4] is on record?
A: high toxicity

Q: For `Cc1cccc(C)c1OCC(=O)N[C@@H](Cc1ccccc1)[C@@H](O)C[C@H](Cc1ccccc1)NC(=O)[C@H](C(C)C)N1CCCNC1=O` [lopinavir], which “Selectivity index (SI), CC50/IC50” value (SARS-CoV-2) is on record?
A: 3.81

Q: What about the IC50 (SARS-CoV-2; [13]) of the same compound?
A: 13.1 µM

Q: And the CC50 (in vitro)?
A: > 50 µM

Q: For `CCC(CC)COC(=O)[C@H](C)N[P@](=O)(OC[C@H]1O[C@@](C#N)(c2ccc3c(N)ncnn23)[C@H](O)[C@@H]1O)Oc1ccccc1` [remdesivir], which IC50 (SARS-CoV-2; [13]) is on record?
A: 5.27 µM

Q: What about the CC50 (in vitro) of the same compound?
A: > 50 µM

Q: Which “cell viability (MTT) compared with vehicle” value [5] does the source give for Triton-X [reference compound] here?
A: low cell viability

Q: For sodium meta-arsenite [SMA], which IC50 (TNF-α [6]) is on record?
A: 2.3 µM

Q: What about the “secretion of IL-1β” value (IL-1β [7]; [14]) of the same compound?
A: complete inhibition

Q: And the IC50 (IL-1β [7]; 24 h, LPS 100 ng/mL, read-out: IC50, secretion of IL-1β)?
A: 0.8 µM

Q: What about the “secretion of IL-6” value (IL-6 [8]; [14]) of the same compound?
A: complete inhibition

Q: And the IC50 (IL-6 [8]; 24 h, LPS 100 ng/mL, read-out: IC50, secretion of IL-6)?
A: 0.5 µM

Q: What about the IC50 (NO production) of the same compound?
A: ~2.87 µM

Q: And the “inhibition of PGE2 production” value (PGE2 production)?
A: 20%

Q: And the iNOS protein expression (iNOS)?
A: significantly inhibited

Q: What about the COX-2 protein expression (COX-2) of the same compound?
A: slightly inhibited

Q: What about the TNF-α protein expression (TNF-α [9]) of the same compound?
A: significantly inhibited

Q: What about the IL-1β protein expression (IL-1β [10]) of the same compound?
A: significantly inhibited

Q: What about the “iNOS mRNA expression” value (iNOS mRNA) of the same compound?
A: significantly inhibited

Q: What about the “COX-2 mRNA expression” value (COX-2 mRNA) of the same compound?
A: not influenced

Q: What about the “mRNA level of TNF-α” value (TNF-α mRNA) of the same compound?
A: significantly decreased

Q: And the “expression of IL-1β mRNA” value (IL-1β mRNA)?
A: no effect

Q: What about the “expression of IFN-β mRNA” value (IFN-β mRNA) of the same compound?
A: no effect

Q: And the “LPS-induced SEAP expression (NF-κB transcriptional activity)” value [11]?
A: inhibited LPS-induced SEAP expression significantly

Q: And the NF-κB protein level (NF-κB)?
A: markedly decreased

Q: And the IκB degradation (IκB)?
A: markedly inhibited

Q: And the “TNF-α production in BALF” value (TNF-α [1]; mouse, in vivo)?
A: 794

Q: And the “TNF-alpha Mean AUC (baseline-adjusted)” value (TNF-α [1]; mouse, in vivo, 1.03 mg/kg)?
A: 7984.4 pg·h/mL

Q: And the “TNF-alpha Mean AUC (baseline-adjusted)” value (TNF-α [1]; mouse, in vivo, 1.54 mg/kg)?
A: 6064.8 pg·h/mL

Q: And the “TNF-alpha Mean AUC (baseline-adjusted)” value (TNF-α [1]; mouse, in vivo, 2.05 mg/kg)?
A: 4215.8 pg·h/mL

Q: What about the “inhibitory rate of IL-6 production (negative control as 100%)” value (IL-6 [2]; mouse, in vivo) of the same compound?
A: 60%

Q: And the “IL-6 Mean AUC (baseline-adjusted)” value (IL-6 [2]; mouse, in vivo, 1.03 mg/kg)?
A: 165404.0 pg·h/mL

Q: And the “IL-6 Mean AUC (baseline-adjusted)” value (IL-6 [2]; mouse, in vivo, 1.54 mg/kg)?
A: 128034.8 pg·h/mL

Q: What about the “IL-6 Mean AUC (baseline-adjusted)” value (IL-6 [2]; mouse, in vivo, 2.05 mg/kg) of the same compound?
A: 78963.1 pg·h/mL

Q: And the “IL-1 beta Mean AUC (baseline-adjusted)” value (IL-1β [3]; 1.03 mg/kg)?
A: 4272.9 pg·h/mL

Q: What about the “IL-1 beta Mean AUC (baseline-adjusted)” value (IL-1β [3]; 1.54 mg/kg) of the same compound?
A: 3738.3 pg·h/mL

Q: And the “IL-1 beta Mean AUC (baseline-adjusted)” value (IL-1β [3]; 2.05 mg/kg)?
A: 3045.8 pg·h/mL

Q: What about the IC50 (SARS-CoV-2) of the same compound?
A: 4.25 µM

Q: And the “symptoms of SARS-CoV-2 infection after taking SMA” value (SARS-CoV-2 infection)?
A: effective in alleviating or treating the symptoms of SARS-CoV-2 infection; also recorded: Chest tightness and pain relieved; also recorded: Temporary relief of symptoms

Q: And the “cytotoxicity (CytoTox-GLO) compared with vehicle” value ([4]; 24 h, LPS 100 ng/mL)?
A: concentration-dependent increase in cytotoxicity

Q: And the “cell viability (MTT) compared with vehicle” value ([5]; 24 h, LPS 100 ng/mL)?
A: concentration-dependent decrease in viability

Q: And the IC50 ([5]; read-out: IC50 for cell viability, 24 h, LPS 100 ng/mL, MTT)?
A: 5.7 µM

Q: And the CC50 (Vero cells)?
A: 21.1 µM

Q: What about the “time until fully metabolised and excreted from the body after taking it” value [12] of the same compound?
A: 72 h

Q: What about the “inhibition of human telomerase” value (human telomerase) of the same compound?
A: potent inhibitor
